Assay results as given in ChEMBL document CHEMBL1156829 (Proc Natl Acad Sci U S A, 2008).
pEC50: −log10 of the molar value. Peptide text beside a SMILES is read from it. * marks the point of attachment. Boc = CC(C)(C)OC(=O)*; OBn = c1ccc(CO*)cc1

Columns and labels:
[1] = NOVARTIS: Cytotoxicity against human hepatocellular carcinoma cell line (Huh7); type: toxicity, cell-based, Huh-7; settings: Huh7 cells (hepatocellular carcinoma cell line)
[2] = test system: Plasmodium falciparum; assay: NOVARTIS: Inhibition of Plasmodium falciparum W2 (drug-resistant) proliferation in erythrocyte-based infection assay; type: functional, organism-based; settings: Plasmodium falciparum, W2; read-out: EC50
[3] = test system: Plasmodium falciparum; assay: NOVARTIS: Inhibition of Plasmodium falciparum 3D7 (drug-susceptible) proliferation in erythrocyte-based infection assay; type: functional, organism-based; settings: Plasmodium falciparum, 3D7

Structure (SMILES): C[n+]1ccc(C=Cc2ccccc2F)c2ccccc21
- CC50 [1]: 81900 nM
- pEC50 [2]: 7.11
- pEC50 [3]: 7.24

Structure (SMILES): O=C(c1cnn(-c2ccccc2)c1C(F)(F)F)N1CCN(c2ccnc3cc(Cl)ccc23)CC1
- CC50 [1]: > 100000 nM
- pEC50 [2]: 7.05
- pEC50 [3]: 6.46

Structure (SMILES): O=[N+]([O-])c1ccc(N2CCCN(C(=S)Nc3ccc(F)cc3Br)CC2)nc1
- CC50 [1]: > 100000 nM
- pEC50 [2]: 7.04
- pEC50 [3]: 6.96

Structure (SMILES): S=C(NN=Cc1ccccn1)NC1CC2C=CC1C2 (stereo not drawn)
- CC50 [1]: 44300 nM
- pEC50 [2]: 7.35
- pEC50 [3]: 7.41

Structure (SMILES): COc1cc(OC)c(NC(=O)C2c3ccccc3C(=O)N(CC(C)C)C2c2cccs2)cc1Cl (stereo not drawn)
- CC50 [1]: > 100000 nM
- pEC50 [2]: 7.04
- pEC50 [3]: 6.94

Structure (SMILES): N#Cc1ccc(-c2cnc(N)c(-c3ccc(C(N)=O)cc3)n2)cc1
- CC50 [1]: > 100000 nM
- pEC50 [2]: 7.00
- pEC50 [3]: 7.22

Structure (SMILES): COc1cc(C2Nc3ccc4ccccc4c3C3=C2C(=O)CC(C)(C)C3)ccc1Oc1ccc([N+](=O)[O-])cc1C(F)(F)F (stereo not drawn)
- CC50 [1]: > 100000 nM
- pEC50 [2]: 7.02
- pEC50 [3]: 6.55

Structure (SMILES): COc1ccc(C2=C(Nc3ccc4oc5ccccc5c4c3)c3ccccc3C2=O)cc1
- CC50 [1]: > 100000 nM
- pEC50 [2]: 7.00
- pEC50 [3]: 6.85

Structure (SMILES): O=C(N1CCN(c2ccc(C(F)(F)F)cc2[N+](=O)[O-])CC1)C(Cl)(Cl)Cl
- CC50 [1]: > 95000 nM
- pEC50 [2]: 7.06
- pEC50 [3]: 6.58

Structure (SMILES): CCCN(CCC)[P+](CCC)(c1ccc([P+](CCC)(N(CCC)CCC)N(CCC)CCC)cc1)N(CCC)CCC
- CC50 [1]: 72600 nM
- pEC50 [2]: 7.18
- pEC50 [3]: 6.71

Structure (SMILES): c1ccc2c(c1)OC13CCCCC1C2NCC3 (stereo not drawn)
- CC50 [1]: 48600 nM
- pEC50 [2]: 7.36
- pEC50 [3]: 6.57

Structure (SMILES): CN(C)c1ccc(C=Cc2nc(=O)c3ccccc3o2)cc1
- CC50 [1]: > 100000 nM
- pEC50 [2]: 7.02
- pEC50 [3]: 7.02

Structure (SMILES): CCOC(=O)c1cccc(NC(=O)CC2C(=O)N(c3ccccc3)C(=O)N2C2CCCC2)c1 (stereo not drawn)
- CC50 [1]: > 100000 nM
- pEC50 [2]: 7.05
- pEC50 [3]: 6.56

Structure (SMILES): Cc1ccn2c(NC(C)(C)CC(C)(C)C)c(-c3ccccc3OC(=O)c3ccccc3C)nc2c1
- CC50 [1]: > 10000 nM
- pEC50 [2]: > 8.04
- pEC50 [3]: 6.12

Structure (SMILES): COc1cccc(-c2ccc(O)c(CN(C)CCc3ccc(OC)c(OC)c3)c2)n1
- CC50 [1]: 57900 nM
- pEC50 [2]: 7.28
- pEC50 [3]: 6.47

Structure (SMILES): CC(=NO)c1ccc(NC2=C(N3CCCCC3)C(=O)c3ccccc3C2=O)cc1
- CC50 [1]: > 100000 nM
- pEC50 [2]: 7.05
- pEC50 [3]: 7.03

Structure (SMILES): CCOC(=O)c1cccc(NC(=O)CCn2c(-c3ccc(F)cc3)cc(C(=O)OCC)c2C)c1
- CC50 [1]: > 100000 nM
- pEC50 [2]: 7.05
- pEC50 [3]: 7.23

Structure (SMILES): O=C1C(=Cc2ccccc2)Oc2c1ccc(O)c2CN1CCCCC1
- CC50 [1]: > 100000 nM
- pEC50 [2]: 7.04
- pEC50 [3]: 5.85

Structure (SMILES): O=C(c1cccc([N+](=O)[O-])c1)c1ccc(Cl)c(Cl)c1
- CC50 [1]: 62400 nM
- pEC50 [2]: 7.24
- pEC50 [3]: 6.21

Structure (SMILES): CCOc1ccc(Nc2cc(=O)oc3ccccc23)cc1
- CC50 [1]: > 100000 nM
- pEC50 [2]: 7.04
- pEC50 [3]: 6.21

Structure (SMILES): COc1ccc(CCN2C(=O)N(CC(C)C)C(=O)C23CCN(Cc2ccccc2O)CC3)cc1
- CC50 [1]: > 100000 nM
- pEC50 [2]: 7.03
- pEC50 [3]: 6.65

Structure (SMILES): CCCCS(=O)(=O)N(C)CCCNc1ccnc2cc(Cl)ccc12
- CC50 [1]: > 10000 nM
- pEC50 [2]: > 8.04
- pEC50 [3]: 7.16

Structure (SMILES): O=C(Nc1ccc(F)c(Cl)c1)c1c2c(nc3ccccc13)CCN(Cc1ccccc1)C2
- CC50 [1]: > 100000 nM
- pEC50 [2]: 7.01
- pEC50 [3]: 6.10

Structure (SMILES): COC(=O)C1=C(C)NC2=C(C(=O)CC(c3ccc(OC)c(OC)c3)C2)C1c1cccc(Cl)c1Cl (stereo not drawn)
- CC50 [1]: > 100000 nM
- pEC50 [2]: 7.03
- pEC50 [3]: 6.68

Structure (SMILES): CCCOC(=O)C1=C(C)NC2=C(C(=O)CC(c3ccc(OC)c(OC)c3)C2)C1c1ccc(Cl)c(Cl)c1 (stereo not drawn)
- CC50 [1]: 52600 nM
- pEC50 [2]: 7.31
- pEC50 [3]: 6.84

Structure (SMILES): CCc1ccc(C(=O)Oc2ccccc2-c2nc3cc(C)ccn3c2NC(C)(C)CC(C)(C)C)cc1
- CC50 [1]: > 10000 nM
- pEC50 [2]: > 8.03
- pEC50 [3]: 6.34

Structure (SMILES): C[C@@H]1CCC[C@@H](C[C@H]2Cc3cc(O)cc(O)c3C(=O)O2)O1
- CC50 [1]: > 100000 nM
- pEC50 [2]: 7.03
- pEC50 [3]: 7.34

Structure (SMILES): CN1C(=O)N(C)C2(c3ccccc3)NN3C(=NC12c1ccccc1)SC1=C3C(=O)c2ccccc2C1=O (stereo not drawn)
- CC50 [1]: > 100000 nM
- pEC50 [2]: 7.02
- pEC50 [3]: 5.55

Structure (SMILES): COC(=O)C1=C(C)NC2=C(C(=O)CC(c3ccc(OC)cc3)C2)C1c1ccccc1F (stereo not drawn)
- CC50 [1]: > 100000 nM
- pEC50 [2]: 7.05
- pEC50 [3]: 6.64

Structure (SMILES): Cc1ccn2c(NC(C)(C)CC(C)(C)C)c(-c3ccccc3OC(=O)c3ccc(Cl)cc3Cl)nc2c1
- CC50 [1]: > 10000 nM
- pEC50 [2]: > 8.06
- pEC50 [3]: 6.14

Structure (SMILES): CC(=O)N(C1=C(N2CCCCC2)C(=O)c2ccccc2C1=O)c1ccccc1C
- CC50 [1]: 20200 nM
- pEC50 [2]: 7.74
- pEC50 [3]: 7.47

Structure (SMILES): COC(=O)C1=C(C)NC2=C(C(=O)CC(c3ccc(Cl)cc3)C2)C1c1ccc(F)cc1 (stereo not drawn)
- CC50 [1]: > 100000 nM
- pEC50 [2]: 7.01
- pEC50 [3]: 6.73

Structure (SMILES): CCOC(=O)c1ccc(NCc2c(C)[nH]c(C(=O)OCC)c2C)cc1
- CC50 [1]: > 100000 nM
- pEC50 [2]: 7.01
- pEC50 [3]: 6.62

Structure (SMILES): COCCNC(=O)c1ccc(OC2CCN(CC(c3ccccc3)c3ccccc3)CC2)c(OC)c1
- CC50 [1]: > 76700 nM
- pEC50 [2]: 7.13
- pEC50 [3]: 6.52

Structure (SMILES): O=[N+]([O-])c1ccc(S(=O)(=O)N2CCN(C(=S)NCCc3ccccc3)CC2)cc1
- CC50 [1]: > 100000 nM
- pEC50 [2]: 7.01
- pEC50 [3]: 7.01

Structure (SMILES): CCOC(=O)c1cccc(NC(=O)CC2C(=O)N(c3ccc(F)cc3)C(=O)N2CCC(C)C)c1 (stereo not drawn)
- CC50 [1]: > 100000 nM
- pEC50 [2]: 7.00
- pEC50 [3]: 6.70

Structure (SMILES): O=C(NCc1ccco1)c1ccc(OC2CCN(CC3CCCCC3)CC2)c(Cl)c1
- CC50 [1]: 23500 nM
- pEC50 [2]: 7.63
- pEC50 [3]: 7.02

Structure (SMILES): CC(C)(C)CC(C)(C)Nc1c(-c2ccccc2OC(=O)C2CCCCC2)nc2ccccn12
- CC50 [1]: > 10000 nM
- pEC50 [2]: 8.00
- pEC50 [3]: 6.46

Structure (SMILES): O=[N+]([O-])c1ccc(S(=O)(=O)N2CCN(C(=S)NCC3CCCO3)CC2)cc1 (stereo not drawn)
- CC50 [1]: > 100000 nM
- pEC50 [2]: 7.00
- pEC50 [3]: 6.87

Structure (SMILES): CCOC(=O)c1cnc2ccccc2c1Nc1ccc(OC)c(OC)c1
- CC50 [1]: 85400 nM
- pEC50 [2]: 7.07
- pEC50 [3]: 7.18

Structure (SMILES): Cc1ccn2c(NC(C)(C)CC(C)(C)C)c(-c3ccccc3OC(=O)c3cccc(Cl)c3)nc2c1
- CC50 [1]: > 10000 nM
- pEC50 [2]: 8.00
- pEC50 [3]: 6.37

Structure (SMILES): CN1CCN=C1c1ccc(NC(=O)c2ccc(C(=O)Nc3ccc(C4=NCCN4C)cc3)c([N+](=O)[O-])c2)cc1
- CC50 [1]: > 10000 nM
- pEC50 [2]: 8.04
- pEC50 [3]: 7.14

Structure (SMILES): COCCNC(=S)N1CCN(S(=O)(=O)c2ccc([N+](=O)[O-])cc2)CC1
- CC50 [1]: > 100000 nM
- pEC50 [2]: 6.99
- pEC50 [3]: 6.76

Structure (SMILES): O=C(Nc1ccc(C2=NCCCN2)cc1)c1ccc(C(=O)Nc2ccc(C3=NCCCN3)cc2)cc1
- CC50 [1]: > 100000 nM
- pEC50 [2]: 7.03
- pEC50 [3]: 6.92

Structure (SMILES): Oc1ccc(-c2ccccc2)cc1CNCCc1ccc(F)cc1
- CC50 [1]: > 10000 nM
- pEC50 [2]: > 8.01
- pEC50 [3]: 6.16

Structure (SMILES): Cc1cccc2cc(CNC3CCOC(C)(C)C3)c(N3CCCC3)nc12 (stereo not drawn)
- CC50 [1]: 39000 nM
- pEC50 [2]: 7.40
- pEC50 [3]: 7.67

Structure (SMILES): Cc1ccn2c(NC(C)(C)CC(C)(C)C)c(-c3ccccc3OC(=O)CCC3CCCC3)nc2c1
- CC50 [1]: > 10000 nM
- pEC50 [2]: > 7.99
- pEC50 [3]: 5.96

Structure (SMILES): COc1ccc(C(OCCS(=O)(=O)CCO)(c2ccccc2)c2ccc(OC)cc2)cc1
- CC50 [1]: 51600 nM
- pEC50 [2]: 7.31
- pEC50 [3]: 7.15

Structure (SMILES): CCCCN(C)Cc1cc(-c2cccc(OC)n2)ccc1O
- CC50 [1]: > 100000 nM
- pEC50 [2]: 7.04
- pEC50 [3]: 6.06

Structure (SMILES): Cc1cc(-c2ccc(O)c(CN3CCCCC3CO)c2)c2ccccc2n1 (stereo not drawn)
- CC50 [1]: 59100 nM
- pEC50 [2]: 7.24
- pEC50 [3]: 6.44

Structure (SMILES): CC(C)CC(NC(=O)OC(C)(C)C)C(=O)NC(Cc1ccccc1)C(=O)OCc1ccccc1 (stereo not drawn) (Boc-Leu-Phe-OBn; configuration not given here)
- CC50 [1]: > 100000 nM
- pEC50 [2]: 5.53
- pEC50 [3]: < 4.90
